# Measured values as given in ChEMBL document CHEMBL1144238, “Identification and SAR around N-{2-[4-(2,3-dihydro-benzo[1,4]dioxin-2-ylmethyl)-[1,4]diazepan-1-yl]-ethyl}-2-phenoxy-nicotinamide, a selective alpha2C adrenergic receptor antagonist” (Bioorg Med Chem Lett, 2008).
# Legend:
# [1] = test system: Cerebrospinal fluid; assay: Drug level in Wistar Kyoto rat cerebro spinal fluid at 10 mg/kg, sc; format: ADME, organism-based; set-up: dose 10 mg/kg, route subcutaneous; conditions: in vivo
# [2] = species: Homo sapiens; assay: Selectivity for human recombinant adrenergic Alpha-2C receptor over human recombinant adrenergic alpha2B receptor by radioligand binding assay
# [3] = test system: Brain; assay: Drug level in Wistar Kyoto rat brain at 3 mg/kg, sc; format: ADME, organism-based; set-up: dose 3 mg/kg, route subcutaneous; conditions: in vivo
# [4] = target: Sodium-dependent noradrenaline transporter (Homo sapiens) (UniProt P23975); assay: Binding affinity to human NET
# [5] = test system: Cerebrospinal fluid; assay: Drug level in Wistar Kyoto rat cerebro spinal fluid at 30 mg/kg, sc; format: ADME, organism-based; set-up: dose 30 mg/kg, route subcutaneous; conditions: in vivo
# [6] = target: Alpha-2A adrenergic receptor (Rattus norvegicus) (UniProt P22909); assay: Binding affinity to rat adrenergic alpha2A receptor by radioligand binding assay
# [7] = target: T1, Alpha-2A adrenergic receptor (Homo sapiens, UniProt P08913); assay: Antagonist activity at human recombinant adrenergic alpha2A receptor expressed in CHO cells assessed as inhibition of NE-induced calcium mobilization by FLIPR; format: functional, cell-based
# T1 sequence (P08913 whole entry): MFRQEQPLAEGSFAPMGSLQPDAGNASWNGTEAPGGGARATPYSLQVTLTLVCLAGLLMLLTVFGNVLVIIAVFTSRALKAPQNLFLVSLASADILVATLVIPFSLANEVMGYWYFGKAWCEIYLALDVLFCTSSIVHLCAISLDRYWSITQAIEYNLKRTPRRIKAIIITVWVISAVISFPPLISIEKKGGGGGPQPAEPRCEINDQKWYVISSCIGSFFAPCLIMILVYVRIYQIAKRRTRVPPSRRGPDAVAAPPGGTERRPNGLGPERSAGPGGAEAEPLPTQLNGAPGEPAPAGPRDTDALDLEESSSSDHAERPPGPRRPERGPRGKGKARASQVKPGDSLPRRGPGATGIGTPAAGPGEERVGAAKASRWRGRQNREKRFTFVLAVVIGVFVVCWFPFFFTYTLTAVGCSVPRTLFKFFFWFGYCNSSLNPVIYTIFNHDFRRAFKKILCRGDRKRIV
# [8] = test system: Plasma; assay: Drug level in Wistar Kyoto rat plasma at 10 mg/kg, sc; format: ADME, organism-based; set-up: dose 10 mg/kg, route subcutaneous; conditions: in vivo
# [9] = test system: Brain; assay: Drug level in Wistar Kyoto rat brain at 30 mg/kg, sc; format: ADME, organism-based; set-up: dose 30 mg/kg, route subcutaneous; conditions: in vivo
# [10] = target: T2, Alpha-2C adrenergic receptor (Homo sapiens, UniProt P18825); assay: Antagonist activity at human recombinant adrenergic Alpha-2C receptor expressed in CHO cells assessed as inhibition of NE-induced calcium mobilization by FLIPR; format: functional, cell-based
# T2 sequence (P18825 whole entry): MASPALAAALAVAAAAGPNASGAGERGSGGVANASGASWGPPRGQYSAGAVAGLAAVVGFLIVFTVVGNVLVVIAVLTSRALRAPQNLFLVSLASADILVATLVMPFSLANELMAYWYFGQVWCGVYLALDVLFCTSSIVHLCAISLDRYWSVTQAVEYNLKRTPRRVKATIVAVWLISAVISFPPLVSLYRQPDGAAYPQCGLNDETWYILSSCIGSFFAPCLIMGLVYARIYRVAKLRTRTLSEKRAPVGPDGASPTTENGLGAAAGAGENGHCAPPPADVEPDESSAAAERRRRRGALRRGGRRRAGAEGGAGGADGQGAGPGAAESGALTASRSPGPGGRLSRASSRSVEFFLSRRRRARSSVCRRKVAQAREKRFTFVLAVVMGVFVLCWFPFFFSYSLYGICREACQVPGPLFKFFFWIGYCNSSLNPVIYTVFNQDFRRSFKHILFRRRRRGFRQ
# [11] = target: T1, Alpha-2A adrenergic receptor; assay: Binding affinity at human recombinant adrenergic alpha2A receptor expressed in CHO cells by radioligand binding assay; format: cell-based
# [12] = test system: Plasma; assay: Drug level in Wistar Kyoto rat plasma at 3 mg/kg, sc; format: ADME, organism-based; set-up: dose 3 mg/kg, route subcutaneous; conditions: in vivo
# [13] = target: 5-hydroxytryptamine receptor 1A (Homo sapiens) (UniProt P08908); assay: Binding affinity to human 5HT1A receptor
# Chain of 5-hydroxytryptamine receptor 1A (Homo sapiens) (P08908 whole entry): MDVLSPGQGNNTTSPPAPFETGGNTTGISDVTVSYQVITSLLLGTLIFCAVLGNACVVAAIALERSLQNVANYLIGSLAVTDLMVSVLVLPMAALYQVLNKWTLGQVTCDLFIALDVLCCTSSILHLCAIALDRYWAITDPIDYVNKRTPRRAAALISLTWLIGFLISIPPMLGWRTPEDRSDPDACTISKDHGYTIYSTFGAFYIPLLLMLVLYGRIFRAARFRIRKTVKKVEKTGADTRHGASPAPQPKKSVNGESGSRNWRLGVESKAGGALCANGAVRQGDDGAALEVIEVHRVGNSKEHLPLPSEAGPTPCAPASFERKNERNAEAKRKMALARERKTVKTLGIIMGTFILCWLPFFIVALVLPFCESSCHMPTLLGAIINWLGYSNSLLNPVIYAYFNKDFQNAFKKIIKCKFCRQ
# [14] = species: Homo sapiens; assay: Selectivity for human recombinant adrenergic Alpha-2C receptor over human recombinant adrenergic alpha2A receptor by radioligand binding assay
# [15] = target: D(3) dopamine receptor (Homo sapiens) (UniProt P35462); assay: Binding affinity to human dopamine D3 receptor
# [16] = target: Alpha-2B adrenergic receptor (Rattus norvegicus) (UniProt P19328); assay: Binding affinity to rat adrenergic alpha2B receptor by radioligand binding assay
# [17] = species: Homo sapiens; assay: Selectivity human recombinant adrenergic Alpha-2C receptor over human recombinant adrenergic alpha2A receptor by FLIPR
# [18] = species: Homo sapiens; assay: Selectivity human recombinant adrenergic Alpha-2C receptor over human recombinant adrenergic alpha2B receptor by FLIPR
# [19] = target: Sodium-dependent serotonin transporter (Homo sapiens) (UniProt P31645); assay: Binding affinity to human SERT
# Chain of Sodium-dependent serotonin transporter (Homo sapiens) (P31645 whole entry, looked up): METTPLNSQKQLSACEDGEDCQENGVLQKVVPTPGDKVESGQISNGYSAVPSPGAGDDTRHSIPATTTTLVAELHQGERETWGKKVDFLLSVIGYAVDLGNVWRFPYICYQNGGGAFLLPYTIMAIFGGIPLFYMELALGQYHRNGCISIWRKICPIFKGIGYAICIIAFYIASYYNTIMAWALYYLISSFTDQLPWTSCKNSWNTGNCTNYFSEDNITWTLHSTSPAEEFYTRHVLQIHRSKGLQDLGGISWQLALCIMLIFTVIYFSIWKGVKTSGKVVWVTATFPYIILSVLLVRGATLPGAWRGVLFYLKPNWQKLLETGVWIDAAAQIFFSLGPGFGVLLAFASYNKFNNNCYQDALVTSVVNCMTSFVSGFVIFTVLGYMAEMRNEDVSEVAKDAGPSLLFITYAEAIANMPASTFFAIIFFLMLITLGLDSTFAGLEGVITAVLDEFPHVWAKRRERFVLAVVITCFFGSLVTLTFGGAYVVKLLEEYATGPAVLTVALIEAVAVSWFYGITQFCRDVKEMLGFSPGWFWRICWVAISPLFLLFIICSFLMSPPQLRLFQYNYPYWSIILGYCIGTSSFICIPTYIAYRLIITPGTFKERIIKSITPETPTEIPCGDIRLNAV
# [20] = target: Alpha-2C adrenergic receptor (Rattus norvegicus) (UniProt P22086); assay: Binding affinity to rat adrenergic Alpha-2C receptor by radioligand binding assay
# [21] = target: 5-hydroxytryptamine receptor 2A (Homo sapiens) (UniProt P28223); assay: Binding affinity to human 5HT2A receptor
# Chain of 5-hydroxytryptamine receptor 2A (Homo sapiens) (P28223 whole entry): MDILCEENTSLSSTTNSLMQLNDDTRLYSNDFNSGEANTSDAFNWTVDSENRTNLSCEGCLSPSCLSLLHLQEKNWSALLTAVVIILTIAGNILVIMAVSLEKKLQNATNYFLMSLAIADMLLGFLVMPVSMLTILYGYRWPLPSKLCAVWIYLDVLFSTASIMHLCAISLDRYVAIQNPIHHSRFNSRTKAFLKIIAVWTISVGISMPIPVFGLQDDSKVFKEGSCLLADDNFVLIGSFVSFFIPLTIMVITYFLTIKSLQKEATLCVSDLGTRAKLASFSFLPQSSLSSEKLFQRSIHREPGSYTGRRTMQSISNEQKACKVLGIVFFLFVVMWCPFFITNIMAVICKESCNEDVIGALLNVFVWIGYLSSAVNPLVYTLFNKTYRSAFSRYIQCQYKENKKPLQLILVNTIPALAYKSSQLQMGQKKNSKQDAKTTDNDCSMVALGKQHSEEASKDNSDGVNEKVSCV
# [22] = target: Alpha-1A adrenergic receptor (Homo sapiens) (UniProt P35348); assay: Binding affinity to human adrenergic alpha1A receptor
# Chain of Alpha-1A adrenergic receptor (Homo sapiens) (P35348 whole entry): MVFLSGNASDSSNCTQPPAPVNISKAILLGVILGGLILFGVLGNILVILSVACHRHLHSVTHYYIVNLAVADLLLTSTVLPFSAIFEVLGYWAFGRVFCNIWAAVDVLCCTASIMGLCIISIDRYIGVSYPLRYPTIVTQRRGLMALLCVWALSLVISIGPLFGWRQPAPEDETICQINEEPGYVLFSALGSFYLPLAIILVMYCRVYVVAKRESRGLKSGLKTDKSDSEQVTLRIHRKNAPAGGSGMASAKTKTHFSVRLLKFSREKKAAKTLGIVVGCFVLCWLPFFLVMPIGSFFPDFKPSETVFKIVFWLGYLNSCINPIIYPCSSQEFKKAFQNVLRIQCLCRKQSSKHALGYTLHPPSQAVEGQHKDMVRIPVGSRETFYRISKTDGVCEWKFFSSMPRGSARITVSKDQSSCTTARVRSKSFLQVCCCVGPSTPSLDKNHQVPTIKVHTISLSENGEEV
# [23] = target: 5-hydroxytryptamine receptor 1B (Homo sapiens) (UniProt P28222); assay: Binding affinity to human 5HT1B receptor at 10 uM
# Chain of 5-hydroxytryptamine receptor 1B (Homo sapiens) (P28222 whole entry): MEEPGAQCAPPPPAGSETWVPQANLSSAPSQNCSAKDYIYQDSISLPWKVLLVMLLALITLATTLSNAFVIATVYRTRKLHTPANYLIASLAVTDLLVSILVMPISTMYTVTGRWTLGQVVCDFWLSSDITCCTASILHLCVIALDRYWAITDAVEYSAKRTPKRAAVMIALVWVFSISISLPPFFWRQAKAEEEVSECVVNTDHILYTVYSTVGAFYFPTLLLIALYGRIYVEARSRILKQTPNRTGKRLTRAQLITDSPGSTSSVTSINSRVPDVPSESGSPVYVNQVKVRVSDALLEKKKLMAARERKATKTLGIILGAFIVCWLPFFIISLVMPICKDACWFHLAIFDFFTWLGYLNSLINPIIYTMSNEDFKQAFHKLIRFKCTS
# [24] = target: D(2) dopamine receptor (Homo sapiens) (UniProt P14416); assay: Binding affinity to human dopamine D2 receptor
# Chain of D(2) dopamine receptor (Homo sapiens) (P14416 whole entry): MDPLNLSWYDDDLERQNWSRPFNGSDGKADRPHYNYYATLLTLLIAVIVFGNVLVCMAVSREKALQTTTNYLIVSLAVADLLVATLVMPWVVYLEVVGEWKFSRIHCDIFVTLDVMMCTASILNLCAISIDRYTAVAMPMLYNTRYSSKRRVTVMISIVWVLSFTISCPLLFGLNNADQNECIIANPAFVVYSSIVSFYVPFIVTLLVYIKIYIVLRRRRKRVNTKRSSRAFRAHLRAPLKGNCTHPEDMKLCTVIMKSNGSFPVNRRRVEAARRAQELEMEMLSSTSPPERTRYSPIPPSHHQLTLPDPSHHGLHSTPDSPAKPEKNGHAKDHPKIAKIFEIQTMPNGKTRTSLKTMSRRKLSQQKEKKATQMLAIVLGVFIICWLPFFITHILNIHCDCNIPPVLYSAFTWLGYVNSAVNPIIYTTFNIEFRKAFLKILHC
# [25] = target: Histamine H2 receptor (Homo sapiens) (UniProt P25021); assay: Binding affinity to human histamine H2 receptor
# Chain of Histamine H2 receptor (Homo sapiens) (P25021 whole entry): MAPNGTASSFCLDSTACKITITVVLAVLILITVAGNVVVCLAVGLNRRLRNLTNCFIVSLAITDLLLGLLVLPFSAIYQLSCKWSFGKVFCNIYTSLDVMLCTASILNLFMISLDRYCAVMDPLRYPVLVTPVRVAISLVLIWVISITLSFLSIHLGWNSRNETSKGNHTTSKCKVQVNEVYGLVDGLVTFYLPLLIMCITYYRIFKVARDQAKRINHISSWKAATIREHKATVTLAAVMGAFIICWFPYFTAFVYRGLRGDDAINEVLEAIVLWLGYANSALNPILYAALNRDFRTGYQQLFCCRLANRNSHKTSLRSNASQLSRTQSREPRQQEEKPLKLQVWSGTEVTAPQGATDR
# [26] = test system: Brain; assay: Drug level in Wistar Kyoto rat brain at 10 mg/kg, sc; format: ADME, organism-based; set-up: dose 10 mg/kg, route subcutaneous; conditions: in vivo
# [27] = target: 5-hydroxytryptamine receptor 7 (Homo sapiens) (UniProt P34969); assay: Binding affinity to human 5HT7 receptor
# [28] = target: Muscarinic acetylcholine receptor M1 (Homo sapiens) (UniProt P11229); assay: Binding affinity to human muscarinic M1 receptor at 10 uM
# Chain of Muscarinic acetylcholine receptor M1 (Homo sapiens) (P11229 whole entry): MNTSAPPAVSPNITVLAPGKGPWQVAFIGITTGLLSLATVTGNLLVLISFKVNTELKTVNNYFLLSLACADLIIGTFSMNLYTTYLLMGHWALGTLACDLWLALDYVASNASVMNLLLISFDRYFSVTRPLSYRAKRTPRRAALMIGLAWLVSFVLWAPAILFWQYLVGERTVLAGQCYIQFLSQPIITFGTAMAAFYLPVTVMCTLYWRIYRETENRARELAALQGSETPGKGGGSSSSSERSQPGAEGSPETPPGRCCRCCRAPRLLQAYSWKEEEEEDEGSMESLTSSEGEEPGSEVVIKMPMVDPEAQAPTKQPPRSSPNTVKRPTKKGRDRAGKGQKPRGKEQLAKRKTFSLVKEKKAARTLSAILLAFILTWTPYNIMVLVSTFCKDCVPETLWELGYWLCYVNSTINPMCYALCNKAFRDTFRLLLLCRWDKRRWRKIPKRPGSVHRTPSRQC
# [29] = target: T3, Alpha-2B adrenergic receptor (Homo sapiens, UniProt P18089); assay: Binding affinity at human recombinant adrenergic alpha2B receptor expressed in CHO cells by radioligand binding assay; format: cell-based
# T3 sequence (P18089 whole entry): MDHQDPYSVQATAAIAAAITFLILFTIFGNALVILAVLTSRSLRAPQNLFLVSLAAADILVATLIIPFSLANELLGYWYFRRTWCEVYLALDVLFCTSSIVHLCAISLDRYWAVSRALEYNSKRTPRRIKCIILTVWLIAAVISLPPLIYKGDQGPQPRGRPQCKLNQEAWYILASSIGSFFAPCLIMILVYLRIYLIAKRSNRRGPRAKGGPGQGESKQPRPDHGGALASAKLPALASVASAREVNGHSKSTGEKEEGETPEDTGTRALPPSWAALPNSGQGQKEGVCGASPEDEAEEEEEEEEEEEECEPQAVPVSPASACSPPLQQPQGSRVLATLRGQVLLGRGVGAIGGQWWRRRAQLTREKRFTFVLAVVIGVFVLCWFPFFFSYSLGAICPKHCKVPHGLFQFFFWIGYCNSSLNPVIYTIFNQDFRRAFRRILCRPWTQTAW
# [30] = test system: Cerebrospinal fluid; assay: Drug level in Wistar Kyoto rat cerebro spinal fluid at 3 mg/kg, sc; format: ADME, organism-based; set-up: dose 3 mg/kg, route subcutaneous; conditions: in vivo
# [31] = target: Sodium-dependent dopamine transporter (Homo sapiens) (UniProt Q01959); assay: Binding affinity to human DAT
# Chain of Sodium-dependent dopamine transporter (Homo sapiens) (Q01959 whole entry): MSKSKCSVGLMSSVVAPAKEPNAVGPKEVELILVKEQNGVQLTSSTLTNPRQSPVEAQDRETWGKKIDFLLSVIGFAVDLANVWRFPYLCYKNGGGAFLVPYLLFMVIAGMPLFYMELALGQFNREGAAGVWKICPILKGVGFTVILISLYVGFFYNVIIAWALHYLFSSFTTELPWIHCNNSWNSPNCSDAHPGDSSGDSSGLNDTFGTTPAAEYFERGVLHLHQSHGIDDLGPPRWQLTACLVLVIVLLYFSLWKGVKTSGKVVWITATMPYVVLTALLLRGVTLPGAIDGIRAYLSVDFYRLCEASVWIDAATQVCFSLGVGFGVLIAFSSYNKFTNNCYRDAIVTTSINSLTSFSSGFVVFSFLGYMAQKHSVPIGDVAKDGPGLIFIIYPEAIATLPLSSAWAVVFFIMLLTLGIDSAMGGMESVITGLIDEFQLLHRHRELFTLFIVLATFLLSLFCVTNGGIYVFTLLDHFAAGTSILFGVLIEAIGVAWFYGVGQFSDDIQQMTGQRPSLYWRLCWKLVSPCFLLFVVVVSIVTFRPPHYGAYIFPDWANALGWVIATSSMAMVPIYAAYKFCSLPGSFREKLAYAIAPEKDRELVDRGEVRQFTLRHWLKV
# [32] = target: T2, Alpha-2C adrenergic receptor; assay: Binding affinity at human recombinant adrenergic Alpha-2C receptor expressed in CHO cells by radioligand binding assay; format: cell-based
# [33] = target: Histamine H1 receptor (Homo sapiens) (UniProt P35367); assay: Binding affinity to human histamine H1 receptor 1 uM
# Chain of Histamine H1 receptor (Homo sapiens) (P35367 whole entry): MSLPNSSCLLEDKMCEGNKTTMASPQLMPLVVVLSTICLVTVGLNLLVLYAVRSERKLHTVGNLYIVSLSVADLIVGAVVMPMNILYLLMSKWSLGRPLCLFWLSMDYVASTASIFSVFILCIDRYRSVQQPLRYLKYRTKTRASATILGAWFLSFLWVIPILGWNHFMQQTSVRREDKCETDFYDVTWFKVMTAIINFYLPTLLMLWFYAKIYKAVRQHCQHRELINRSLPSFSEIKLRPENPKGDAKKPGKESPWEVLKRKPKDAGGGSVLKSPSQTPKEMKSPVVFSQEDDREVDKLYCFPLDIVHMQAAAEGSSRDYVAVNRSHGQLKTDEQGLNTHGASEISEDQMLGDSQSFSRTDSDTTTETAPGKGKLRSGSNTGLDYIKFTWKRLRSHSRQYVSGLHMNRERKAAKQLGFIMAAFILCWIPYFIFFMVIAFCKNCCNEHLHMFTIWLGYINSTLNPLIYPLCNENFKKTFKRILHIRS
# [34] = target: T3, Alpha-2B adrenergic receptor; assay: Antagonist activity at human recombinant adrenergic alpha2B receptor expressed in CHO cells assessed as inhibition of NE-induced calcium mobilization by FLIPR; format: functional, cell-based
# [35] = target: D(4) dopamine receptor (Homo sapiens) (UniProt P21917); assay: Binding affinity to human dopamine D4 receptor at 1 uM
# [36] = target: Muscarinic acetylcholine receptor M3 (Homo sapiens) (UniProt P20309); assay: Binding affinity to human muscarinic M3 receptor at 10 uM
# [37] = test system: Plasma; assay: Drug level in Wistar Kyoto rat plasma at 30 mg/kg, sc; format: ADME, organism-based; set-up: dose 30 mg/kg, route subcutaneous; conditions: in vivo
# [38] = target: Muscarinic acetylcholine receptor M2 (Homo sapiens) (UniProt P08172); assay: Binding affinity to human muscarinic M2 receptor
# [39] = target: 5-hydroxytryptamine receptor 2B (Homo sapiens) (UniProt P41595); assay: Binding affinity to human 5HT2B receptor
compound,measurement,setting,value
O=C(NCCN1CCCN(C[C@H]2COc3ccccc3O2)CC1)c1cccnc1Oc1ccccc1,Drug uptake,[1],26.9 ng/mL
same,Ratio Ki,[2],16
same,Drug uptake,[3],173 ngequiv/g
same,Activity,[4],1790 nM
same,Drug uptake,[5],113 ng/mL
same,Activity,[6],177 nM
same,Ki,[7],> 442 nM
same,Cp,[8],2100 ng/mL
same,Drug uptake,[9],2230 ngequiv/g
same,Ki,[10],1.9 nM
same,Ki,[11],94.4 nM
same,Cp,[12],744 ng/mL
same,Activity,[13],141 nM
same,Ratio Ki,[14],106
same,Activity,[15],75 nM
same,Activity,[16],7.6 nM
same,Ratio Ki,[17],> 232
same,Ratio Ki,[18],16
same,Activity,[19],1480 nM
same,Activity,[20],1.7 nM
same,Activity,[21],2400 nM
same,Activity,[22],59 nM
same,Activity,[23],44%
same,Activity,[24],820 nM
same,Activity,[25],1900 nM
same,Drug uptake,[26],630 ngequiv/g
same,Activity,[27],530 nM
same,Activity,[28],4%
same,Ki,[29],14.3 nM
same,Drug uptake,[30],7.39 ng/mL
same,Activity,[31],3.48 µM
same,Ki,[32],0.9 nM
same,Activity,[33],33%
same,Ki,[34],31.3 nM
same,Activity,[35],10%
same,Activity,[36],27%
same,Cp,[37],6190 ng/mL
same,Activity,[38],1600 nM
same,Activity,[39],690 nM
